This is an account of results in article PMC5484120 (Marine Drugs, 2017).

As usually defined, the IC50 is the point on the concentration scale where inhibition reaches its midpoint. Lower therefore signals greater potency.

In this experiment the target is T1, hα9α10 nAChR (Homo sapiens, UniProt Q9GZZ6+Q9UGM1).
T1 construct: expressed in transfected cells; host or cells: Xenopus laevis oocytes injected with cRNA
Kind of experiment: cell-based. It is filed as cell-based.

Each structure is given as a SMILES string. Values joined by “and” are separate entries in the source; they are usually repeats but may differ in a detail not shown here. Equal entries are not always repeated.

T1 sequence (Q9UGM1 26-479 limits assumed): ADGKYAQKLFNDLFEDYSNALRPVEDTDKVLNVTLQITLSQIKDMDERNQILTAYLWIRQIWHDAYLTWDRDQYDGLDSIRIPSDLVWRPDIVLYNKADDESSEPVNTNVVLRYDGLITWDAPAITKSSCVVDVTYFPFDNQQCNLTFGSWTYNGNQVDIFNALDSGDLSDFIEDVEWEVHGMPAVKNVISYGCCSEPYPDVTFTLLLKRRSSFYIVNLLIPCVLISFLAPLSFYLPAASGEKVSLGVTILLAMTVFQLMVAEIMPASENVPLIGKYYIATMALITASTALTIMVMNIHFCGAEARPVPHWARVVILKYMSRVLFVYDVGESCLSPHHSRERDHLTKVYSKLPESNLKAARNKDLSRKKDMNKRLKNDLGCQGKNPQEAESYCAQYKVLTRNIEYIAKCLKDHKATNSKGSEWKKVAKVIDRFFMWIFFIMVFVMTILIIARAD
T1 sequence (Q9GZZ6 25-450): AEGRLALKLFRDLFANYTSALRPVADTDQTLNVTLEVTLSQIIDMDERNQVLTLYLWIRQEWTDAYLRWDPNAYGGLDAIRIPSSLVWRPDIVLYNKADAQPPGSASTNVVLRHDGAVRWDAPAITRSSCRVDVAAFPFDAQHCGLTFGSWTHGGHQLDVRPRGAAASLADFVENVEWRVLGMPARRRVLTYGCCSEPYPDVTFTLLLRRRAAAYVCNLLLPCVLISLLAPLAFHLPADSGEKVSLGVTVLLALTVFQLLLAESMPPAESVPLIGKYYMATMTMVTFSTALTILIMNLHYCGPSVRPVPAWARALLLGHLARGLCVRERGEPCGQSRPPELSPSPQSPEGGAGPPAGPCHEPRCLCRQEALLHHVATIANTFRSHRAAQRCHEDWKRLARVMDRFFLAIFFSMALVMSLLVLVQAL

`CSCC[C@H](NC(=O)[C@H](CC(C)C)NC(=O)[C@H](C)N)C(=O)N[C@@H](CO)C(=O)N[C@H](C(=O)NCC(=O)N[C@H](C(=O)N[C@@H](CC(N)=O)C(=O)N[C@@H](Cc1ccc(O)cc1)C(=O)N[C@@H](CCCNC(=N)N)C(=O)N[C@@H](CC(C)C)C(=O)N[C@@H](CC(C)C)C(=O)N[C@@H](CCCCN)C(=O)N[C@H](C(=O)N[C@@H](CSCC(N)=O)C(=O)N[C@@H](CCCNC(=N)N)C(=O)NCC(=O)N[C@@H](CO)C(=O)NCC(=O)N[C@@H](CCCNC(=N)N)C(=O)N[C@@H](Cc1ccc(O)cc1)C(=O)N[C@@H](CSCC(N)=O)C(=O)N[C@@H](CCCNC(=N)N)C(=O)N[C@@H](CO)C(=O)N1CCC[C@H]1C(=O)N[C@@H](Cc1ccc(O)cc1)C(=O)O)[C@@H](C)O)[C@@H](C)O)[C@@H](C)O` [GeXXVIIA-L-Nter]: the IC50 came to 222 ± 14 nM; the “inhibition of ACh-evoked current, hα9α10 nAChR” value was > 90% and ~ 55%.
